TGI data for eight compounds are collected here from PubChem BioAssay (NCI).

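Following 48 hours of exposure in 96-well plates, responses at five concentrations were used to interpolate endpoints linearly. TGI marks complete inhibition of growth.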

Holding throughout (experiment): growth of human tumour cells (NCI), 48 h
Assay [1] concerns MDA-N.
The test system of assay [2] is NCI-H460 lung.
Assay [3] deals with MDA-MB-435.
The subject of assay [4] is LOX IMVI melanoma.
The subject of assay [5] is COLO 205 colon.
For assay [6], the system named is SK-MEL-5 melanoma.
Assay [7] relates to 786-0 renal.
Assay [8] has as its system SF-295 CNS.
Assay [9] has as its system SK-OV-3 ovarian.
Assay [10] concerns EKVX NSCLC.
Assay [11] has as its system NCI-H23 lung.
For assay [12], the system named is MCF7 breast.
Assay [13] deals with NCI/ADR-RES ovarian.
The subject of assay [14] is CAKI-1 renal.
The test system of assay [15] is A498 renal.
Assay [16] has as its system RXF 393 renal.
The test system of assay [17] is MALME-3M melanoma.
Assay [18] concerns HS 578T breast.

As to `Cc1c(F)c(N)c2c(=O)cc(-c3ccc(N)c(F)c3)oc2c1F`, the TGI was over 89 µM in assay [1]; 24.2 µM in assay [2]; over 100 µM in assay [3]; 55.8 µM in assay [4]; over 100 µM in assay [5]; 67 µM in [6]. The TGI in assay [7] came out at 34.9 µM; in assay [8], 43.2 µM; in [9], 38.1 µM; in assay [10] it was 54.7 µM; in [11], 68.4 µM; in assay [12], 4.39 µM. For the same compound, the TGI in assay [13] is 42.4 µM; in assay [14], 0.114 µM; in [15] it was 8.74 µM; in assay [16], 41.6 µM; in assay [17], over 91.4 µM; in assay [18], over 95 µM.

As for `Cc1c(Cl)c(S(N)(=O)=O)cc2c1NC=NS2(=O)=O`, the TGI in assay [1], in [2], in assay [3], in assay [4], in [5] and in assay [6] was over 100 µM throughout. Further, the TGI in assay [7], in assay [8], in assay [9], in assay [10], in assay [11] and in assay [12] was over 100 µM in each case. Besides, the TGI in assay [13], in assay [14], in assay [15], in assay [16], in assay [17] and in assay [18] was over 100 µM in each case.

As to `COc1ccc(C2=NN(C(N)=S)C(c3ccccc3)C2)cc1` (centres undefined), the TGI was over 100 µM in [1]; over 100 µM in assay [2]; over 100 µM in assay [3]; over 100 µM in [4]; 58.7 µM in assay [5]; 32.3 µM in assay [6]. The TGI in assay [7] is over 100 µM; in assay [8] it was 96.2 µM; in assay [9], over 100 µM; in [10], over 100 µM; in assay [11], over 100 µM; in assay [12] it was 69.6 µM. The TGI is over 100 µM in assay [13]; over 100 µM in [14]; 70.8 µM in assay [15]; 88.4 µM in assay [16]; 82.2 µM in [17]; over 100 µM in assay [18].

As for `O=C(NNCc1ccco1)c1cc2ccccc2[nH]1`, the TGI in [1], in [2], in assay [3], in [4], in assay [5] and in assay [6] was over 100 µM in each case. Also, the TGI was over 100 µM in assay [7]; over 100 µM in assay [8]; over 100 µM in assay [9]; over 100 µM in [10]; over 100 µM in assay [11]; over 46.3 µM in [12]. Further, the TGI in [13] is over 80.8 µM; in assay [14], over 100 µM; in assay [15], over 100 µM; in assay [16] it was over 100 µM; in [17], over 100 µM; in assay [18], over 100 µM.

`CCOc1cc2c(cc1O)CC[C@@H]1[C@@H]2CC[C@]2(C)C(N)CC[C@@H]12` (some centres undefined): the TGI is 3.6 µM in [1]; 11.6 µM in assay [2]; 3.96 µM in assay [3]; 10.9 µM in assay [4]; 17.3 µM in [5]; 16.7 µM in [6]. Also, the TGI was found to be 13.8 µM in assay [7]; 12.5 µM in assay [8]; 17.6 µM in assay [9]; 20.9 µM in [10]; 16.7 µM in assay [11]; 28.1 µM in assay [12]. Besides, the TGI in assay [13] was 8.98 µM; in [14] it was 22.7 µM; in assay [15] it was 18.7 µM; in assay [16], 7.33 µM; in [17], 28.2 µM; in assay [18], 23.2 µM.

With `Nc1nc2n[nH]nc2c(=O)[nH]1`, the TGI in [1] was 15.4 µM; in [2], over 89.4 µM; in [3], 29 µM; in assay [4], 6.88 µM; in [5] it was 24.3 µM; in assay [6], 13.8 µM. Also, the TGI in assay [7] was over 100 µM; in assay [8], over 33.1 µM; in assay [9], 9.21 µM; in assay [10], over 100 µM; in assay [11], over 100 µM; in [12], over 100 µM. The TGI in [13] was over 100 µM; in assay [14], over 100 µM; in assay [15], 32.8 µM; in assay [16] it was 2.95 µM; in assay [17], 16.8 µM; in assay [18], 20.4 µM.

For the compound `CC1=NN(C(=O)CC(=O)Nc2ccc(C)cc2)C(=O)C1N=Nc1ccc(S(=O)(=O)c2ccc(N=NC3C(=O)N(C(=O)CC(=O)Nc4ccc(C)cc4)N=C3C)cc2)cc1` (centres undefined), the TGI in [1], in assay [2], in assay [3], in assay [4], in [5] and in assay [6] was over 100 µM throughout. Besides, the TGI in [7], in [8], in assay [9], in [10], in assay [11] and in assay [12] was over 100 µM in each case. Also, the TGI in [13], in [14], in [15], in [16], in assay [17] and in assay [18] was over 100 µM each time.

`CCCCN(Cc1ccccc1)C(=NC#N)N(Cc1ccccc1)Cc1ccccc1`: the TGI in [1] is 59.9 µM; in [2] it was over 100 µM; in [3] it was 59.3 µM; in assay [4], 35.1 µM; in assay [5], 32.2 µM; in [6] it was 29.4 µM. In addition, the TGI in [7] was 56.2 µM; in assay [8], over 66 µM; in assay [9], over 96.1 µM; in [10], over 100 µM; in [11], over 74.5 µM; in [12] it was over 100 µM. Also, the TGI is 59.7 µM in [13]; 58.4 µM in [14]; over 100 µM in assay [15]; 63.8 µM in assay [16]; 79.4 µM in assay [17]; 99.1 µM in assay [18].
